Experimental data: patent US7605272B2, “IGF-1R inhibitor” (Kyowa Hakko Kirin Co., Ltd., priority 2005, dated 2009)
Structures can show the parent of a compound that is named as a salt. Where two headings read alike, the source gives them in different places.

Key:
[1] = target: T1, IGF-1R (Homo sapiens, UniProt P08069); experiment: IGF-1R inhibitory activity (kinase reaction, time-resolved fluoroimmunoassay); format: biochemical; details: test compound 10 μmol/L
T1 construct: purchased Upstate Co. 14-465
Method in brief: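 Compounds were tested at a single 10 μmol/L concentration. Each was incubated with recombinant IGF-1R (200 μg/L), 10 mmol/L ATP, MgCl2/MnCl2 and Na3VO4 (pH 7.5) on immobilized poly(Glu-Tyr) peptide for 30 min at 24° C. Eu-anti-phosphotyrosine time-resolved fluorescence (340/615 nm) gave relative activity against no-compound and no-enzyme wells, reported as % inhibition.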

[2] = test system: KMS-11; experiment: Cytostatic activity on human multiple myeloma cell line KMS-11 (WST-1); format: cell-based; details: for inhibition at 10 µM / inhibition at 1 µM: Homo sapiens, KMS-11, 72 h; for inhibition at 10 µM: 10 μmol/L, read-out: cytostatic rate (%) KMS-11 (10 μmol/L); for inhibition at 1 µM: read-out: cytostatic rate (%) KMS-11 (1 μmol/L)
Method: (§1) The cytostatic rates of a test compound on human multiple myeloma cell lines NCI-H929 and KMS-11, were determined in the following manner.
(§2) For culturing NCI-H929, Roswell Park Memorial Institute's Medium (RPMI) 1640 (Gibco, Catalog No. 11875-093) containing 15% fetal bovine serum (Gibco, Catalog No. 10099-141), 1 mmol/L sodium pyruvate (Gibco, Catalog No. 11360-070), 10 mmol/L HEPES (Gibco, Catalog No. 15630-80), 4.5 g/L glucose (Sigma, Catalog No. G8769), 0.05 mmol/L 2-mercaptethanol (Nacalai Tesque, Catalog No. 21418-42) and penicillin/streptomycin (1:1) (Gibco, Catalog No. 15140-122) was used. For culturing KMS-11 cell, RPMI 1640 medium containing 10% fetal bovine serum and penicillin/streptomycin (1:1) was used. Each 80 μL of the NCI-H929 cell having a concentration of 1×10^5 cells/mL (or the KMS-11 cell having a concentration of 7.5×10^4 cells/mL) was inoculated to wells of a TC MICROWELL 96U plate (Nalge Nunc International, Catalog No. 163320) and was cultured in a 5% carbon dioxide gas incubator at 37° C. for 24 hours. Each 20 μL of a solution of the test compound in dimethyl sulfoxide (DMSO) which was prepared to make the final concentration to 1 μmol/L or 10 μmol/L, was added to each well. Each 20 μL of DMSO was added to the control well and the blank well to a final concentration of 0.1%. After adding the test compound, the cells were incubated in a 5% carbon dioxide gas incubator at 37° C. for 72 hours except for the blank well. After adding 20 μL of WST-1 reagent {4-[3-(4-iodophenyl)-2-(4-nitrophenyl)-2H-5-tetrazolio]-1,3-benzene disulfonate sodium salt} (Roche Diagnostics K.K., Catalog No. 1644807), which was diluted to 50% by RPMI medium to each well, the cells were further incubated at 37° C. for 2 hours. Then, the absorbances at 450 nm (reference wavelength: 690 nm) were measured with a microplate spectrophotometer SPECTRA max 340PC (Molecular Devices Corporation). The relative growth (%) of a well to which the test compound had been added and cultured for 72 hours was determined while setting the absorbance of a well to which not the test compound but DMSO alone had been added and cultured for 72 hours (control) as 100% and that of a well where the drugs are added (blank) as 0%. The cytostatic rate (%) of the test compound was determined by subtracting the calculated relative growth from 100.

[3] = test system: NCI-H929; experiment: Cytostatic activity on human multiple myeloma cell line NCI-H929 (WST-1); format: cell-based; details: for inhibition at 10 µM / inhibition at 1 µM: Homo sapiens, NCI-H929, 72 h; for inhibition at 10 µM: 10 μmol/L, read-out: cytostatic rate (%) H929 (10 μmol/L); for inhibition at 1 µM: read-out: cytostatic rate (%) H929 (1 μmol/L)
Method: as §1, §2

[4] = IGF-1R active recombinant enzyme
[5] = KMS-11 cells, test compound 1 μmol/L, WST-1
[6] = NCI-H929 cells, test compound 1 μmol/L, WST-1

T1 sequence (P08069 959-1367 limits assumed): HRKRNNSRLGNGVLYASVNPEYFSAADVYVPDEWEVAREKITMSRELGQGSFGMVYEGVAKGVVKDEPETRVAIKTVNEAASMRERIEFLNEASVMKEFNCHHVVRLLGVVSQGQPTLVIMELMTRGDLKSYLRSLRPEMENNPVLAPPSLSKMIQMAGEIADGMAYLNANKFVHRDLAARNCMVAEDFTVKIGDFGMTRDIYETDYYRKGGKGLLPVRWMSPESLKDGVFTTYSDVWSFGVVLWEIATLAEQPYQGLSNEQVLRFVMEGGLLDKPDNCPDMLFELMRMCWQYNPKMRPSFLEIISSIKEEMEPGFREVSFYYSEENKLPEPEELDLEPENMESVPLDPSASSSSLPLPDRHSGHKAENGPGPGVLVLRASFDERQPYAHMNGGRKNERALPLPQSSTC

Compound | inhibition at 10 µM [1, 4] | inhibition at 10 µM ([2]; 72 hours) | inhibition at 10 µM ([3]; 72 hours) | other results
CCNC(=O)Nc1ccccc1/C=C/c1n[nH]c2ccccc12 [Compound 21, (E)-1-ethyl-3-{2-[2-(1H-indazol-3-yl)vinyl]phenyl}urea] | 88.2% | 94% | 114% | –
Cc1ccsc1C(=O)Nc1cc(N(C)CCO)ccc1/C=C/c1n[nH]c2ccccc12 [Compound 280] | – | – | – | inhibitory activity (%) at 10 μmol/L [1, 4]: 97.6%; cytostatic rate (%) KMS-11 (1 μmol/L) ([2]; 1 μmol/L, 72 hours): 109.0%; cytostatic rate (%) H929 (1 μmol/L) ([3]; 1 μmol/L, 72 hours): 112.2%
Cn1ccnc1C(=O)Nc1ccccc1/C=C/c1n[nH]c2ccccc12 [Compound 352, (E)-N-{2-[2-(1H-indazol-3-yl)vinyl]phenyl}-1-methyl-1H-imidazole-2-carboxamide] | 103% | – | – | inhibition at 1 µM ([2]; 1 μmol/L, 72 hours): 84.8%; inhibition at 1 µM ([3]; 1 μmol/L, 72 hours): 108%
COc1cc(/C=C/c2n[nH]c3ccccc23)c(NC(=O)c2sccc2C)cc1OC [Compound 95, (E)-N-{2-[2-(1H-indazol-3-yl)vinyl]-4,5-dimethoxyphenyl}-3-methylthiophene-2-carboxamide] | – | 138% | 121% | inhibition at 10 µM [1]: 97.2%
COCCCN1CCN(C(=O)c2ccc(/C=C/c3n[nH]c4ccccc34)c(N3C(=O)c4cccc(N)c4C3=O)c2)CC1 [Compound 309, (E)-4-amino-2-{2-[2-(1H-indazol-3-yl)vinyl]-5-[4-(3-methoxypropyl)piperazin-1-ylcarbonyl]phenyl}isoindole-1,3-dione] | 97.1% | – | – | inhibition at 1 µM [2, 5]: 113%; inhibition at 1 µM [3, 6]: 115%
O=C(Nc1ccccc1/C=C/c1n[nH]c2ccccc12)c1ccco1 [Compound 11, (E)-N-{2-[2-(1H-indazol-3-yl)vinyl]phenyl}furan-2-carboxamide] | 99.4% | 120% | 116% | –
O=S(=O)(Nc1ccccc1/C=C/c1n[nH]c2ccccc12)c1cccs1 [Compound 60, (E)-N-{2-[2-(1H-indazol-3-yl)vinyl]phenyl}thiophene-2-sulfonamide] | 77.4% | 103% | 63.9% | –
O=C(Nc1ccccc1/C=C/c1n[nH]c2ccccc12)N1CCOCC1 [Compound 35, (E)-N-{2-[2-(1H-indazol-3-yl)vinyl]phenyl}morpholine-4-carboxamide] | 98.4% | 125% | 110% | –
O=C(Nc1ccccc1/C=C/c1n[nH]c2ccccc12)c1ccno1 [Compound 37, (E)-N-{2-[2-(1H-indazol-3-yl)vinyl]phenyl}isoxazole-5-carboxamide] | 99.1% | 112% | 112% | –
COCCCN1CCN(Cc2ccc(/C=C/c3n[nH]c4ccccc34)c(N3Cc4c(N)cccc4C3=O)c2)CC1 [Compound 323, (E)-4-amino-2-{2-[2-(1H-indazol-3-yl)vinyl]-5-[4-(3-methoxypropyl)piperazin-1-ylmethyl]phenyl}-2,3-dihydroisoindol-1-one] | – | – | – | inhibitory activity (%) at 10 μmol/L [1, 4]: 105.8%; cytostatic rate (%) KMS-11 (1 μmol/L) [2, 5]: 73.8%; cytostatic rate (%) H929 (1 μmol/L) [3, 6]: 107.6%
Cn1cccc1CC(=O)Nc1ccccc1/C=C/c1n[nH]c2ccccc12 [Compound 73, (E)-N-{2-[2-(1H-indazol-3-yl)vinyl]phenyl}-2-(1-methyl-1H-pyrrole-2-yl)acetamide] | 88% | 90.4% | 80% | –
Nc1ccc(C(=O)Nc2cc3c(cc2/C=C/c2n[nH]c4ccccc24)OCO3)s1 [Compound 132, (E)-5-amino-N-{6-[2-(1H-indazol-3-yl)vinyl]benzo[1,3]dioxol-5-yl}thiophene-2-carboxamide] | – | 112% | 108% | inhibition at 10 µM [1]: 98%
Cc1ccsc1C(=O)Nc1cc(CN2CCN(CCN3CCOCC3)CC2)ccc1/C=C/c1n[nH]c2ccccc12 [Compound 319] | – | – | – | inhibitory activity (%) at 10 μmol/L [1, 4]: 100.4%; cytostatic rate (%) KMS-11 (1 μmol/L) [2, 5]: 102.6%; cytostatic rate (%) H929 (1 μmol/L) [3, 6]: 122.4%
O=C(Nc1cccnc1)c1ccccc1/C=C/c1n[nH]c2ccccc12 [Compound 142, (E)-2-[2-(1H-indazol-3-yl)vinyl]-N-(pyridin-3-yl)benzamide] | 92.8% | 84.9% | 104% | –
O=C(Nc1ccccc1/C=C/c1n[nH]c2ccccc12)c1ccccc1F [Compound 8, (E)-2-fluoro-N-{2-[2-(1H-indazol-3-yl)vinyl]phenyl}benzamide] | 99.5% | 126% | 118% | –

Now from value to compound, other results behind:

inhibition at 10 µM [1, 4] | Compound | inhibition at 10 µM ([2]; 72 hours) | inhibition at 10 µM ([3]; 72 hours) | other results
101% | Cc1ccsc1C(=O)Nc1cc(CN2CCNC[C@@H]2C)ccc1/C=C/c1n[nH]c2ccccc12 [Compound 336, (E)-(S)—N-{2-[2-(1H-indazol-3-yl)vinyl]-5-(2-methylpiperazin-1-ylmethyl)phenyl}-3-methylthiophene-2-carboxamide] | – | – | inhibition at 1 µM [2, 5]: 115%; inhibition at 1 µM [3, 6]: 131%
102% | COCCN1CCN(Cc2ccc(/C=C/c3n[nH]c4ccccc34)c(NC(=O)c3sccc3C)c2)CC1 [Compound 271, (E)-N-{2-[2-(1H-indazol-3-yl)vinyl]-5-[4-(2-methoxyethyl)piperazin-1-ylmethyl]phenyl}-3-methylthiophene-2-carboxamide] | – | – | inhibition at 1 µM ([2]; 1 μmol/L, 72 hours): 123%; inhibition at 1 µM ([3]; 1 μmol/L, 72 hours): 119%
97.4% | COc1c(OCCCN2CCC(O)CC2)ccc(/C=C/c2n[nH]c3ccccc23)c1NC(=O)c1sccc1C [Compound 344, (E)-N-{3-[3-(4-hydroxypiperidin-1-yl)propoxy]-6-[2-(1H-indazol-3-yl)vinyl]-2-methoxyphenyl}-3-methylthiophene-2-carboxamide] | – | – | inhibition at 1 µM [2, 5]: 117%; inhibition at 1 µM [3, 6]: 133%
101% | Cc1ccsc1C(=O)Nc1cc(C(=O)N2C[C@@H](C)O[C@@H](C)C2)ccc1/C=C/c1n[nH]c2ccccc12 [Compound 223, (E)-N-{2-[2-(1H-indazol-3-yl)vinyl]-5-(cis-2,6-dimethylmorpholin-4-ylcarbonyl)phenyl}-3-methylthiophene-2-carboxamide hydrochloride] | – | – | inhibition at 1 µM ([2]; 1 μmol/L, 72 hours): 120%; inhibition at 1 µM ([3]; 1 μmol/L, 72 hours): 119%
98.6% | O=C(Nc1ccccc1/C=C/c1n[nH]c2ccccc12)c1cscn1 [Compound 36, (E)-N-{2-[2-(1H-indazol-3-yl)vinyl]phenyl}thiazole-4-carboxamide] | 116% | 112% | –
103% | Cc1ccsc1C(=O)Nc1cc(N2CCN(C)CC2)ccc1/C=C/c1n[nH]c2ccccc12 [Compound 262, (E)-N-{2-[2-(1H-indazol-3-yl)vinyl]-5-(4-methylpiperazin-1-yl)phenyl}-3-methylthiophene-2-carboxamide] | – | – | inhibition at 1 µM ([2]; 1 μmol/L, 72 hours): 119%; inhibition at 1 µM ([3]; 1 μmol/L, 72 hours): 119%
98.9% | CCN(CC)CCNC(=O)c1ccc(/C=C/c2n[nH]c3ccccc23)c(NC(=O)c2sccc2C)c1 [Compound 230, (E)-N-{5-(2-diethylaminoethylcarbamoyl)-2-[2-(1H-indazol-3-yl)vinyl]phenyl}-3-methylthiophene-2-carboxamide hydrochloride] | – | – | inhibition at 1 µM ([2]; 1 μmol/L, 72 hours): 93.8%; inhibition at 1 µM ([3]; 1 μmol/L, 72 hours): 124%
96.5% | O=C(Nc1ccccc1/C=C/c1n[nH]c2ccccc12)c1cccs1 [Compound 14, (E)-N-{2-[2-(1H-indazol-3-yl)vinyl]phenyl}thiophene-2-carboxamide] | 110% | 114% | –
